Active and inactive are the calls of the source.
Legend:
HEK293 [1] = test: cells; type: functional, cell-based; conditions: Homo sapiens
Nonstructural protein 1 = Nonstructural protein 1 (Influenza A virus, UniProt Q194T2); type: functional, Influenza A virus (A/California/07/2009(H1N1))
[2] = target: T1, Nuclear receptor subfamily 0 group B member 1 (Homo sapiens, UniProt P51843); test: Luminescence-based cell-based high throughput dose response assay for inhibitors of the orphan nuclear receptor subfamily 0, group B, member 1 (DAX1; NR0B1). [Related pubchem assays (depositor defined):AID504766, AID504790]; type: functional
T1 sequence (P51843 whole entry): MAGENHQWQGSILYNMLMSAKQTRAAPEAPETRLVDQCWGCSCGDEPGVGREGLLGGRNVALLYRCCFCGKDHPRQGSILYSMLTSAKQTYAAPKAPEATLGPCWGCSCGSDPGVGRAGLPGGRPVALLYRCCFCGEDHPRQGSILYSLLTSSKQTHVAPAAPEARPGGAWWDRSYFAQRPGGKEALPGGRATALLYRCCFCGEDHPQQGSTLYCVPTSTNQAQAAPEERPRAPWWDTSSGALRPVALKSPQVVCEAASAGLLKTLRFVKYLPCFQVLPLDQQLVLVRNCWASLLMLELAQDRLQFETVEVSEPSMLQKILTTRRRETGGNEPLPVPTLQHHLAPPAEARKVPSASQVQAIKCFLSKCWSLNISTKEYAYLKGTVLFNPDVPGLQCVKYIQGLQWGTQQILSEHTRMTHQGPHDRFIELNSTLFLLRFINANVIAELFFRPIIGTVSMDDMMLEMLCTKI

Escherichia coli = test: microbe, parasite or virus in culture
[3] = target: T2, G-protein coupled receptor 35 (Homo sapiens, UniProt Q9HC97); test: SAR analysis of Antagonists of the GPR35 Receptor using an Image-Based Assay - Set 6. [Related pubchem assays (depositor defined):AID2013, AID2026]; type: functional
Cannabinoid receptor 1 [4] = target: T3, Cannabinoid receptor 1 (Homo sapiens, UniProt P21554); test: SAR analysis of antagonists of the Cannabinoid Receptor 1 using an Image-Based Assay - Set 4. [Related pubchem assays (depositor defined):AID2013, AID2026]; type: functional
Cannabinoid receptor 1 [5] = target: T3, Cannabinoid receptor 1; test: SAR analysis of agonists of the Cannabinoid Receptor 1 using an Image-Based Assay - Set 4. [Related pubchem assays (depositor defined):AID2013, AID2026]; type: functional
Cannabinoid receptor 2 [6] = target: T4, Cannabinoid receptor 2 (Homo sapiens, UniProt P34972); test: SAR analysis of antagonists of the Cannabinoid Receptor 2 using an Image-Based Assay - Set 3. [Related pubchem assays (depositor defined):AID2013, AID2026]; type: functional
[7] = target: T2, G-protein coupled receptor 35; test: SAR analysis of Agonists of the GPR35 Receptor using an Image-Based Assay - Set 4. [Related pubchem assays (depositor defined):AID2013, AID2026]; type: functional
Cannabinoid receptor 2 [8] = target: T4, Cannabinoid receptor 2; test: SAR analysis of agonists of the Cannabinoid Receptor 2 using an Image-Based Assay - Set 3. [Related pubchem assays (depositor defined):AID2013, AID2026]; type: functional
[9] = target: G-protein coupled receptor 55 (Homo sapiens, UniProt Q9Y2T6); test: SAR Analysis of Selective Antagonists of GPR55 using an Image-Based Assay - Set 4. [Related pubchem assays (depositor defined):AID2013, AID2026]; type: functional;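 further: antagonism of response to 5 µM lysophosphatidylinositol agonist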
Streptokinase A = target: T5, Streptokinase A (Streptococcus pyogenes serotype M1, UniProt P10520); test: viability-normalized secreted streptokinase activity reduction – plasminogen activation absorbance, OD405, dose response (AID 1914); type: functional, Streptococcus pyogenes M1 GAS;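 further: secreted streptokinase activity via plasminogen activation per viability signal from cell pellet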
T5 sequence (P10520 whole entry): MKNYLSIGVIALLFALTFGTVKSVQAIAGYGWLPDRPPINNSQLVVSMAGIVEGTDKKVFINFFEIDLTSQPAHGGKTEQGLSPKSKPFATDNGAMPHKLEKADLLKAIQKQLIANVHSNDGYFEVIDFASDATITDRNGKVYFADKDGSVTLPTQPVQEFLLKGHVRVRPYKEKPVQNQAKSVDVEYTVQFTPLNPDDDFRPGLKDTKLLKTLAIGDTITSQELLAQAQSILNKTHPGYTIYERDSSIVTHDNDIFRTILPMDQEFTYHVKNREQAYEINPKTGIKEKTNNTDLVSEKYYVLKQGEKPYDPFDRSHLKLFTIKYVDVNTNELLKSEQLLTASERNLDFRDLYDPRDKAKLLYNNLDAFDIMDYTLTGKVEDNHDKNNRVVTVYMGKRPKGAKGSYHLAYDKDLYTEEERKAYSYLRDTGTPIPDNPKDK

CAAX prenyl protease 2 [10] = target: T6, CAAX prenyl protease 2 (Homo sapiens, UniProt Q9Y256); test: inhibition of Ras-converting CAAX protease Rce1 – biochemical, yeast membranes, quenched-peptide fluorescence, cherry-pick, dose response (AID 588849)
T6 sequence (Q9Y256 whole entry): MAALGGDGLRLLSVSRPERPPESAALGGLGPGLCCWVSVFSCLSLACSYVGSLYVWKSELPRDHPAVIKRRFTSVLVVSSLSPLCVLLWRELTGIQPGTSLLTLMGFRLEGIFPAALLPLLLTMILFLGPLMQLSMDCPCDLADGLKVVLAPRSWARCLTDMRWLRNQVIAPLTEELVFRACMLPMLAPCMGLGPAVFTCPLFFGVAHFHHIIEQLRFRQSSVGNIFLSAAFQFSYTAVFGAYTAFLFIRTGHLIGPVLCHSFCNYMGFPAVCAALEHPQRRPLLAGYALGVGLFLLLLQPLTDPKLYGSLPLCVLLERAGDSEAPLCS

[11] = system: Streptococcus sp. 'group A'; test: Streptococcus pyogenes SK(-)GAS viability under kanamycin – luminescence, BacTiterGlo, confirmation, counter-screen for streptokinase expression inhibitor project, dose response (AID 1900); type: functional, organism-based
Streptococcus = test: GAS UMAA2166 growth inhibition – luminescence, BacTiterGlo, counter-screen for streptokinase expression inhibitor project, dose response (AID 1915); type: functional, organism-based;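 further: potency for reduction of bacterial viability or growth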
Trypsin = Trypsin (Sus scrofa, UniProt P00761); test: trypsin protease activity blockade – biochemical, quenched peptide fluorescence, cherry-pick, selectivity assay for Rce1 protease inhibitor project, dose response (AID 488789)
[12] = viability of uninfected HEp-2 cells – cell-based, HTS, cytotoxicity control for RSV inhibitor project, dose response (AID 2410); type: functional; conditions: human respiratory syncytial virus
CAAX prenyl protease 2 [13] = target: T7, CAAX prenyl protease 2 (Saccharomyces cerevisiae S288c, UniProt Q03530); type: biochemical
T7 sequence (Q03530 whole entry): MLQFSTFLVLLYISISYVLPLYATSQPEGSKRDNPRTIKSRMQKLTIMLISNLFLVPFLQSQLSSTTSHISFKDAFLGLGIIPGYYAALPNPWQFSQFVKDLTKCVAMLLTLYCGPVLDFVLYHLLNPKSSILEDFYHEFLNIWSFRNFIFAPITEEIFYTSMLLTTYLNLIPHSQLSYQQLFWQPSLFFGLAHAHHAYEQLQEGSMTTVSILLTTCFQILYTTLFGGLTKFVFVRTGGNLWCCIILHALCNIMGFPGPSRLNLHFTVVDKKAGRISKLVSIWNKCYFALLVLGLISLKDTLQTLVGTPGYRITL

[14] = Luminescence Cell-Based Dose Response HTS to Identify Activators of Luciferase Translation or Activity in H4 […] Cells. [Related pubchem assays: 1829 (Project Summary), 1814 (Primary HTS)]; type: functional
Cytochrome P450 2D6 = Cytochrome P450 2D6 (Homo sapiens, UniProt P10635);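 further: CYP2D6 member of a cytochrome P450 panel assay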
[15] = blockade of melanocortin 4 receptor signaling – cell-based, plate reader, cherry pick, counter-screen for LGR2 antagonist project, dose response (AID 743444); type: functional;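 further: transfected HEK 293 cells stimulated with alpha-MSH peptide; potency of inhibitors of the alpha-MSH evoked signal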
[16] = Luminescence Cell-Based Dose Response HTS to Identify Inhibitors of 5'UTR Stem-Loop Driven Prion Protein mRNA Translation in H4 Neuroglioblastoma Cells. [Related pubchem assays: 1827 (Project Summary), 1813 (Primary HTS)]; type: functional
[17] = blockers of bursicon-stimulated LGR2 cAMP reporter – cell-based, HEK293, CRE-luciferase reporter, cherry pick, set 2, dose response (AID 743343); type: functional;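 further: transfected cells were stimulated with diluted bursicon conditioned medium after compound addition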
HEK293 [18] = test: inhibition of NOD1-driven NF-kB reporter – cell-based, luminescence, uHTS, primary screen (AID 1578); type: functional; conditions: Homo sapiens
HEK293 [19] = test: NOD2 signaling inhibitors in MDP-stimulated cells, cell-based, uHTS, luminescence (AID 2001); type: functional; conditions: Homo sapiens
HEK293 [20] = test: cells; type: functional, cell-based; conditions: Homo sapiens; remark: listed apart in the source
HEK293 [21] = test: cells; type: functional, cell-based; conditions: Homo sapiens; remark: listed apart in the source
[22] = alpha-synuclein stem-loop luciferase translation blockers – H4 neuroglioma cells, luminescence, confirmation (AID 1988); type: functional, cell-based
[23] = luciferase reporter signal suppression in cells – H4 neuroglioma cells, luminescence, dose response (AID 1990); type: functional, cell-based
HEK293 [24] = test: EBV LMP1 TES2 canonical NF-kB signalling blockers – cell-based, HEK293, luciferase, cherry-pick, dose response (AID 588343); type: functional; conditions: Homo sapiens
Cytochrome P450 2C9 = Cytochrome P450 2C9 (Homo sapiens, UniProt P11712)
[25] = Trypanosoma cruzi growth suppression in host cells – NIH3T3 host cells, beta-gal luminescence, confirmation (AID 2044); type: functional, cell-based;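 further: intracellular parasites grown in NIH/3T3 mouse fibroblasts as host cells; luminescent beta-galactosidase reporter signal from transgenic T. cruzi replicating inside host cells; inhibitors lower the luminescence signal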
[26] = NIH3T3 cell viability loss – ATP luminescence, mouse fibroblasts, counter-screen, dose response (AID 2010); type: functional, cell-based;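 further: cells exposed to compound for about 90 hours before reading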

T2 sequence (Q9HC97 whole entry): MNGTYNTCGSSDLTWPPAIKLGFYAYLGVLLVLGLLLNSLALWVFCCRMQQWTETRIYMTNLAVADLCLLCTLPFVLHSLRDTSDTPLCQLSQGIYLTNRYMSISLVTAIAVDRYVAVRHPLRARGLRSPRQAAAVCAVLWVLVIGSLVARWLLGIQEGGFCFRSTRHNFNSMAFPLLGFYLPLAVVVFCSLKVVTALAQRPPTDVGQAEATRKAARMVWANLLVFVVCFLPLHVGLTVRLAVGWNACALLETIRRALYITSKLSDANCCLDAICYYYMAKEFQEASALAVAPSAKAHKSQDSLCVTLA
T4 sequence (P34972 whole entry): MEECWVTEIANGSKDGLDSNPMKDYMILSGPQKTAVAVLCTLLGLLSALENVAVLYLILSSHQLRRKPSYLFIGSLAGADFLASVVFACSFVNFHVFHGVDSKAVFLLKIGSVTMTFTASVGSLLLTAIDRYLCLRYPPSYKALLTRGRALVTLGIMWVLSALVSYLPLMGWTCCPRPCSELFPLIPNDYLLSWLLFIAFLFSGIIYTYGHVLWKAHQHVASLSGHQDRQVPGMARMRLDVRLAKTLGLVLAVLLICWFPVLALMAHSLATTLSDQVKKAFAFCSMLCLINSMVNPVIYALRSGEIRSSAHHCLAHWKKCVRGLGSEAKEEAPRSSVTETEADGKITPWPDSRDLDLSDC
T3 sequence (P21554 whole entry): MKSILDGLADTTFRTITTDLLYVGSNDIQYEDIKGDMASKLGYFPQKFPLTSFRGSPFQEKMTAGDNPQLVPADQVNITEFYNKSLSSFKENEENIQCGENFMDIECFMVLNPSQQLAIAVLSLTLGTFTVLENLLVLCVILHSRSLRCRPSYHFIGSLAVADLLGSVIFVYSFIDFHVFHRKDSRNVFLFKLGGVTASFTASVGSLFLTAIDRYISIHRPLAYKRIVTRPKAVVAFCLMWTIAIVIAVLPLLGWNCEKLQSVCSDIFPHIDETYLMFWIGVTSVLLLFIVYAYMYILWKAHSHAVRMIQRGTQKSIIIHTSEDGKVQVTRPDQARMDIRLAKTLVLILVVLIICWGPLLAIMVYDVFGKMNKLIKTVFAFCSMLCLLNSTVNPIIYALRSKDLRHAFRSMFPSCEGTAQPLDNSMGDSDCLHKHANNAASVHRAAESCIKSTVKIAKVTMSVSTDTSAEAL
G-protein coupled receptor 55, sequence (Q9Y2T6 whole entry): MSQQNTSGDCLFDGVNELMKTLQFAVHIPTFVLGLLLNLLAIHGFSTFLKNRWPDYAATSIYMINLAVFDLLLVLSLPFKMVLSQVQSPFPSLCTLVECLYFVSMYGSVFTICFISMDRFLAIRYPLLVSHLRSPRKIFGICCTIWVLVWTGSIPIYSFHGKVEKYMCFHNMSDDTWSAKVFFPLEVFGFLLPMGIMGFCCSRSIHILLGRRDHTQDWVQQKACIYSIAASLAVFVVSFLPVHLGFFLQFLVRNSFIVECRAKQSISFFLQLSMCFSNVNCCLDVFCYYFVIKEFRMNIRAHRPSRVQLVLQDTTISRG
Trypsin, sequence (P00761 whole entry): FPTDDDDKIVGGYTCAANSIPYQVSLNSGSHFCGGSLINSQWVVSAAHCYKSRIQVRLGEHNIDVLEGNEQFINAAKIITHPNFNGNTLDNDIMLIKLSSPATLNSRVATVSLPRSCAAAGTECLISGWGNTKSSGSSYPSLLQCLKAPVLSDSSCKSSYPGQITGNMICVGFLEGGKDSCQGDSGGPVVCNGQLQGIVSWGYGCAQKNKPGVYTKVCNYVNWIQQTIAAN
Cytochrome P450 2D6, sequence (P10635 whole entry): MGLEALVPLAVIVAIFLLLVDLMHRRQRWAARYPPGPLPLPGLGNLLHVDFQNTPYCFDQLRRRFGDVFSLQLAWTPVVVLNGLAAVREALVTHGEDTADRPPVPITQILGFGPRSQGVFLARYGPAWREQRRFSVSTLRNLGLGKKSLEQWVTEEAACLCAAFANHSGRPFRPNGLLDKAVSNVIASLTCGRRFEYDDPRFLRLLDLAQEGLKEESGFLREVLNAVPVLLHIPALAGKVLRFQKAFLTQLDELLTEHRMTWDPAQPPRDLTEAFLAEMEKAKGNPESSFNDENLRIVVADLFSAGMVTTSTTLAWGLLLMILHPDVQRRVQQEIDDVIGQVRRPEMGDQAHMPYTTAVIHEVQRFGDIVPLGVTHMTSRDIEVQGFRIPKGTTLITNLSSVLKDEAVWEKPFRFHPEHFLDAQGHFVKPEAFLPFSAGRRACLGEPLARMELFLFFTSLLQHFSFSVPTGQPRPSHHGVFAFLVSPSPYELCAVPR
Cytochrome P450 2C9, sequence (P11712 whole entry): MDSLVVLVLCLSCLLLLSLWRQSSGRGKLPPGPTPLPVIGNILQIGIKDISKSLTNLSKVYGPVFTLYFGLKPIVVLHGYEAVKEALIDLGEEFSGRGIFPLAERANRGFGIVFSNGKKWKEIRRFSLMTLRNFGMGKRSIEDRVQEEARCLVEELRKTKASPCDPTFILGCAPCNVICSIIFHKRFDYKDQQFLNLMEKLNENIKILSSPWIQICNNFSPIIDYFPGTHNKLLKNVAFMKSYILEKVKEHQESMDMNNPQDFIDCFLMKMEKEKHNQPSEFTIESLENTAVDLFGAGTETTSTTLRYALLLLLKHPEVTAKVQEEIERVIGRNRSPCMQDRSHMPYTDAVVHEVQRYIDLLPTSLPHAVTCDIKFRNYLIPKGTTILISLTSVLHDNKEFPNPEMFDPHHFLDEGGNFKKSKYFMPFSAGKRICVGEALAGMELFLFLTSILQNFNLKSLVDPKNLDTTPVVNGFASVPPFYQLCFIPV
Nonstructural protein 1, sequence (Q194T2 whole entry): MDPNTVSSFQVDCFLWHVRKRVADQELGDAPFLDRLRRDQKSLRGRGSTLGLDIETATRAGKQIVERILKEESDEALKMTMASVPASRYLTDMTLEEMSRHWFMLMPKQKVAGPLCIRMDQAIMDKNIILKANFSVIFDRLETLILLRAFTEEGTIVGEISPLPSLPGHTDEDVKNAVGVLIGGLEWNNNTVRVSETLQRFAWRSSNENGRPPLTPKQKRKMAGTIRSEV

## Cc1ccnc2nc(C(=O)Nc3nc(-c4ccccn4)cs3)nn12
HEK293 [1]
  IC50: 65.2 µM (inactive)
Nonstructural protein 1
  IC50: 5.06 µM (active)
[2]
  IC50: > 67.5 µM (inactive)

## Cc1nc(-c2cccc(S(=O)(=O)N3CCOCC3)c2)cs1
Escherichia coli
  AC50: 35.7 µM (active)

## COc1ccc(-c2nnc(C)c3nn(-c4ccc(Cl)cc4)cc23)cc1
[3]
  IC50: > 32 µM (inactive)
Cannabinoid receptor 1 [4]
  IC50: 1.47 µM (active)
Cannabinoid receptor 1 [5]
  EC50: > 32 µM (inactive)
Cannabinoid receptor 2 [6]
  IC50: 13.2 µM (inactive)
[7]
  EC50: > 32 µM (inactive)
Cannabinoid receptor 2 [8]
  EC50: > 32 µM (inactive)
[9]
  IC50: 3.56 µM (active)

## COc1cc(-c2c(C#N)c(N)nc3c2c(C)nn3-c2ccc(C)c(C)c2)cc(OC)c1OC
cells
  IC50: 31.8 µM (active)
Streptokinase A
  EC50: > 150 µM (not active)
CAAX prenyl protease 2 [10]
  AC50: 11.2 µM (active)
[11]
  EC50: 5.69 µM (active)
Streptococcus
  EC50: 36.4 µM (active)
Trypsin
  AC50: 16.1 µM (active)
[12]
  CC50: 22.1 µM (active)

## CCn1c2ccccc2c2cc(/C=N/NC(=O)c3ccc(O)cc3)ccc21
CAAX prenyl protease 2 [10]
  AC50: 40.3 µM (active)
CAAX prenyl protease 2 [13]
  AC50: 21.6 µM (active)
Trypsin
  AC50: 4.51 µM (active)

## O=C(Nc1ccc(F)cc1)/C(Cl)=C/c1ccccc1
HEK293 [1]
  IC50: > 67.5 µM (inactive)
[14]
  EC50: 5.09 µM (active)
[2]
  IC50: > 67.5 µM (inactive)

## CNC(=O)OCC[N+](C)(C)C
Cytochrome P450 2D6
  AC50: inconclusive

## Fc1ccccc1/C=N/Nc1cc(N2CCCCC2)ncn1
HEK293 [1]
  IC50: > 67.5 µM (inactive)
[2]
  IC50: > 67.5 µM (inactive)

## O=C1OCCC1Sc1nnc(-c2ccc(Cl)cc2Cl)o1 (centres undefined)
[15]
  AC50: 9.84 µM (active)
[16]
  EC50: 9.97 µM (active)
[17]
  AC50: 9.34 µM (active)
HEK293 [18]
  EC50: 6.32 µM (active)
HEK293 [19]
  IC50: 13 µM (inactive)
HEK293 [20]
  IC50: > 20 µM (inactive)
HEK293 [21]
  IC50: 6.93 µM (active)
[22]
  EC50: 8.84 µM (active)
[23]
  EC50: 7.77 µM (active)
HEK293 [24]
  AC50: 7.18 µM (active)

## O=C(c1ccc(Cn2cnnn2)cc1)N1CCCC(Nc2ccc(F)cc2)C1 (centres undefined)
CAAX prenyl protease 2 [10]
  AC50: 22.6 µM (active)
CAAX prenyl protease 2 [13]
  AC50: 5.9 µM (active)
Trypsin
  AC50: 5.79 µM (active)

## Cc1nnc(-c2ccc(Cl)cc2)c2cn(-c3ccccc3)nc12
[3]
  IC50: > 32 µM (inactive)
Cannabinoid receptor 1 [4]
  IC50: 3.58 µM (active)
Cannabinoid receptor 1 [5]
  EC50: > 32 µM (inactive)
Cannabinoid receptor 2 [6]
  IC50: 19.5 µM (inactive)
[7]
  EC50: > 32 µM (inactive)
Cannabinoid receptor 2 [8]
  EC50: > 32 µM (inactive)
[9]
  IC50: 19.2 µM (inactive)

## Cc1ccc(C)c(C(=O)C2=C(O)C(=O)N(Cc3cccnc3)C2c2cccnc2)c1 (centres undefined)
Cytochrome P450 2C9
  AC50: 3.16 µM (inconclusive)
Cytochrome P450 2D6
  AC50: inconclusive

## CC(C)NC(=O)c1cc2c(=O)n3ccccc3nc2n(C2CCCC2)c1=N
[3]
  IC50: > 32 µM (inactive)
Cannabinoid receptor 1 [4]
  IC50: > 32 µM (inactive)
Cannabinoid receptor 1 [5]
  EC50: > 32 µM (inactive)
Cannabinoid receptor 2 [6]
  IC50: > 32 µM (inactive)
[7]
  EC50: > 32 µM (inactive)
Cannabinoid receptor 2 [8]
  EC50: 9.06 µM (active)
[9]
  IC50: > 32 µM (inactive)

## Clc1ccc(C2[C@H]3CN(Cc4cccnc4)[C@H](c4ccccc4)C34CC2(c2ccccc2)C4)cn1 (some centres undefined)
[25]
  EC50: 1.61 µM (active)
Escherichia coli
  AC50: 34.8 µM (active)
[26]
  EC50: 9.94 µM (active)

Source: ChEMBL document CHEMBL1201862, “PubChem BioAssay data set” (2004)
